The subject of this experiment is L1210 leukemia ip in BDF1 mice, survival T/C. Description: NCI In Vivo Anticancer Drug Screen. Data for tumor model L1210 Leukemia (intraperitoneal) in B6D2F1 (BDF1) mice. To be noted: endpoint: mean survival time, higher = longer survival. Put shortly: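 Transplanted-tumor mice were given test agent; controls received vehicle only. Survival readings from the two groups were divided (treated over control).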

[1] abbreviates: dose: 100.0 mg/kg/injection, schedule: Q04DX003 (ip), vehicle: saline.
[2] abbreviates: dose: 200.0 mg/kg/injection, schedule: Q04DX003 (ip), vehicle: saline.
The mark [3] stands for this setting: dose: 400.0 mg/kg/injection, schedule: Q04DX003 (ip), vehicle: saline.
The mark [4] stands for this setting: dose: 100.0 mg/kg/injection, schedule: Q04DX003 (ip), vehicle: saline with Tween-80.
Setting [5] is: dose: 200.0 mg/kg/injection, schedule: Q04DX003 (ip), vehicle: saline with Tween-80.
Setting [6] is: dose: 100.0 mg/kg/injection, schedule: Q01DX001 (ip), vehicle: saline.
[7] abbreviates: dose: 200.0 mg/kg/injection, schedule: Q01DX001 (ip), vehicle: saline.
Setting [8] is: dose: 400.0 mg/kg/injection, schedule: Q01DX001 (ip), vehicle: saline.
The mark [9] stands for this setting: dose: 400.0 mg/kg/injection, schedule: Q04DX003 (ip), vehicle: saline with Tween-80.

Several values for one entry are separate records, joined by “and”; a condition that tells them apart may be missing. Equal entries are not always repeated. Inconclusive results and toxic doses are left out. Square brackets hold non-standard residues; d marks the D form. Peptide text beside a SMILES is read from it. * marks the point of attachment. Cbz = O=C(OCc1ccccc1)*; Abu = CC[CH](N)C(=O)O; OBn = c1ccc(CO*)cc1

T/C data for 17 molecules are collected here from PubChem BioAssay AID248 (DTP/NCI, 2004).

In the case of `[O-][N+]1=CCCC1`, the T/C is, setting by setting: (dose: 100.0 mg/kg/injection, schedule: Q01DX009 (ip), vehicle: saline) 89 % of control; under setting [1], 104 % of control; (dose: 200.0 mg/kg/injection, schedule: Q01DX009 (ip), vehicle: saline) 91 % of control; under setting [2], 107 % of control; (dose: 400.0 mg/kg/injection, schedule: Q01DX009 (ip), vehicle: saline) 92 % of control; under setting [3], 105 % of control.

For `CCC(NC(=O)OCc1ccccc1)C(=O)NC(C(=O)OCc1ccccc1)C(C)C` (centres undefined) (Cbz-[Abu]-Val-OBn; configuration not given here), the T/C is 96 % of control (dose: 100.0 mg/kg/injection, schedule: Q01DX009 (ip), vehicle: Klucel (hydroxypropylcellulose) (HPC)); 99 % of control (dose: 200.0 mg/kg/injection, schedule: Q01DX009 (ip), vehicle: Klucel (hydroxypropylcellulose) (HPC)); 96 % of control (dose: 400.0 mg/kg/injection, schedule: Q01DX009 (ip), vehicle: Klucel (hydroxypropylcellulose) (HPC)).

In the case of `CC1=C/C(O)CC(=O)Cc2nc(co2)C(=O)N2CCC=C2C(=O)OC(C(C)C)C(C)/C=C\C(=O)NC/C=C\1` (centres undefined), the T/C by setting is: (dose: 0.5 micrograms/kg/injection, schedule: Q01DX009 (ip), vehicle: saline) 95 % of control; (dose: 1.0 micrograms/kg/injection, schedule: Q01DX009 (ip), vehicle: saline) 93 % of control; (dose: 2.0 micrograms/kg/injection, schedule: Q01DX009 (ip), vehicle: saline) 104 % of control; (dose: 4.0 micrograms/kg/injection, schedule: Q01DX009 (ip), vehicle: saline) 104 % of control.

On to `CC1CN1C(=O)OCCOC(=O)N1CC1C` (centres undefined), for which the T/C runs as follows: (dose: 200.0 mg/kg/injection, schedule: Q01DX Z (ip), vehicle: saline) 108 % of control; (dose: 444.0 mg/kg/injection, schedule: Q01DX009 (ip), vehicle: saline) 104 % of control; (dose: 450.0 mg/kg/injection, schedule: Q01DX Z (ip), vehicle: saline) 188 % of control; (dose: 666.0 mg/kg/injection, schedule: Q01DX009 (ip), vehicle: saline) 107 % of control; (dose: 675.0 mg/kg/injection, schedule: Q01DX Z (ip), vehicle: saline) 195 % of control; (dose: 750.0 mg/kg/injection, schedule: Q01DX001 (ip), vehicle: saline) 117 % of control. The T/C reads like this: (dose: 1000.0 mg/kg/injection, schedule: Q01DX009 (ip), vehicle: saline) 115 % of control; (dose: 1500.0 mg/kg/injection, schedule: Q01DX001 (ip), vehicle: saline) 106 % of control; (dose: 1500.0 mg/kg/injection, schedule: Q01DX009 (ip), vehicle: saline) 96 % of control.

As for `COc1cc([N+](=O)[O-])c2nc(C(Br)(Br)Br)ccc2c1[N+](=O)[O-]`, the T/C (dose: 50.0 mg/kg/injection, schedule: Q01DX001 (ip), vehicle: carboxymethylcellulose (CMC)) was 105 % of control; the T/C (dose: 100.0 mg/kg/injection, schedule: Q01DX001 (ip), vehicle: carboxymethylcellulose (CMC)) is 111 % of control; the T/C (dose: 200.0 mg/kg/injection, schedule: Q01DX001 (ip), vehicle: carboxymethylcellulose (CMC)) is 96 % of control; the T/C (dose: 400.0 mg/kg/injection, schedule: Q01DX001 (ip), vehicle: carboxymethylcellulose (CMC)) was 103 % of control.

Regarding `CC(NC(=O)NCCCl)c1ccccc1` (centres undefined), the T/C (dose: 25.0 mg/kg/injection, schedule: Q04DX003 (ip), vehicle: saline with Tween-80) is 100 % of control; the T/C (dose: 50.0 mg/kg/injection, schedule: Q04DX003 (ip), vehicle: saline with Tween-80) was 90 % of control; the T/C under setting [4] is 100 % of control and 90 % of control and 94 % of control; the T/C under setting [5] was 102 % of control.

On to `c1ccc(CN2C3C(c4ccccc4)=NN=C(c4ccccc4)C32)cc1` (centres undefined), for which the T/C is 98 % of control under setting [6], 102 % of control under setting [7] and 102 % of control under setting [8].

With `COC(=O)CC1(CC(=O)OC)C(=O)N(c2ccccc2)c2ccccc21`, the T/C is 90 % of control (dose: 100.0 mg/kg/injection, schedule: Q01DX001 (ip), vehicle: Klucel (hydroxypropylcellulose) (HPC)); 93 % of control (dose: 200.0 mg/kg/injection, schedule: Q01DX001 (ip), vehicle: Klucel (hydroxypropylcellulose) (HPC)); 93 % of control (dose: 400.0 mg/kg/injection, schedule: Q01DX001 (ip), vehicle: Klucel (hydroxypropylcellulose) (HPC)).

Take `CC1(O)c2cccc3c2C2(O)c4c1cccc4C(C)(O)c1cccc(c12)C3(C)O` (centres undefined): the T/C is 106 % of control (dose: 100.0 mg/kg/injection, schedule: Q01DX009 (ip), vehicle: saline with Tween-80); 103 % of control and 108 % of control under setting [4]; 105 % of control (dose: 200.0 mg/kg/injection, schedule: Q01DX009 (ip), vehicle: saline with Tween-80); 114 % of control and 110 % of control under setting [5]; 95 % of control and 101 % of control under setting [9].

Regarding `ClCc1ccc(CCl)cc1`, the T/C was 101 % of control (dose: 56.25 mg/kg/injection, schedule: Q01DX009 (ip), vehicle: Klucel (hydroxypropylcellulose) (HPC)); 98 % of control (dose: 112.5 mg/kg/injection, schedule: Q01DX009 (ip), vehicle: Klucel (hydroxypropylcellulose) (HPC)); 105 % of control (dose: 150.0 mg/kg/injection, schedule: Q04DX003 (ip), vehicle: Klucel (hydroxypropylcellulose) (HPC)); 87 % of control (dose: 225.0 mg/kg/injection, schedule: Q01DX009 (ip), vehicle: Klucel (hydroxypropylcellulose) (HPC)); 97 % of control (dose: 225.0 mg/kg/injection, schedule: Q04DX003 (ip), vehicle: Klucel (hydroxypropylcellulose) (HPC)).

As to `O=C1NC2Cc3ccccc3CC12` (centres undefined), the T/C is, setting by setting: (dose: 100.0 mg/kg/injection, schedule: Q04DX002 (ip), vehicle: Klucel (hydroxypropylcellulose) (HPC)) 102 % of control; (dose: 200.0 mg/kg/injection, schedule: Q04DX002 (ip), vehicle: Klucel (hydroxypropylcellulose) (HPC)) 100 % of control; (dose: 400.0 mg/kg/injection, schedule: Q04DX002 (ip), vehicle: Klucel (hydroxypropylcellulose) (HPC)) 86 % of control.

As to `CCN(CC)Cc1ccccn1`, the T/C was 102 % of control (dose: 25.0 mg/kg/injection, schedule: Q04DX003 (ip), vehicle: saline); 107 % of control (dose: 50.0 mg/kg/injection, schedule: Q04DX003 (ip), vehicle: saline); 96 % of control under setting [1].

With `Cc1[nH]c(=O)[nH]c(=O)c1CCS`, the T/C under setting [6] is 94 % of control, the T/C under setting [7] was 95 % of control and the T/C under setting [8] was 101 % of control.

`NC1C2C(CC(=O)O)OCC=C3CN4CCC1(C(=O)C(=O)O)C4CC32` (centres undefined): the T/C (dose: 0.5 mg/kg/injection, schedule: Q01DX001 (ip), vehicle: saline) was 101 % of control; the T/C (dose: 1.0 mg/kg/injection, schedule: Q01DX001 (ip), vehicle: saline) is 101 % of control; the T/C (dose: 2.0 mg/kg/injection, schedule: Q01DX001 (ip), vehicle: saline) was 102 % of control; the T/C (dose: 4.0 mg/kg/injection, schedule: Q01DX001 (ip), vehicle: saline) was 106 % of control.

Regarding `CCCCCOC(=O)C#CC(=O)OCCCCC`, the T/C (dose: 1.56 mg/kg/injection, schedule: Q01DX009 (ip), vehicle: carboxymethylcellulose (CMC)) was 92 % of control and 101 % of control; the T/C (dose: 3.13 mg/kg/injection, schedule: Q01DX009 (ip), vehicle: carboxymethylcellulose (CMC)) is 108 % of control and 89 % of control; the T/C (dose: 12.5 mg/kg/injection, schedule: Q01DX009 (ip), vehicle: carboxymethylcellulose (CMC)) is 89 % of control; the T/C (dose: 12.5 mg/kg/injection, schedule: Q04DX003 (ip), vehicle: carboxymethylcellulose (CMC)) was 98 % of control; the T/C (dose: 25.0 mg/kg/injection, schedule: Q04DX003 (ip), vehicle: carboxymethylcellulose (CMC)) was 98 % of control; the T/C (dose: 50.0 mg/kg/injection, schedule: Q01DX009 (ip), vehicle: carboxymethylcellulose (CMC)) was 89 % of control. The T/C (dose: 50.0 mg/kg/injection, schedule: Q04DX003 (ip), vehicle: carboxymethylcellulose (CMC)) is 96 % of control and 100 % of control; the T/C (dose: 100.0 mg/kg/injection, schedule: Q04DX002 (ip), vehicle: carboxymethylcellulose (CMC)) is 97 % of control and 106 % of control; the T/C (dose: 200.0 mg/kg/injection, schedule: Q04DX002 (ip), vehicle: carboxymethylcellulose (CMC)) is 95 % of control and 97 % of control.

For `O=C(O)c1nccc2c([N+](=O)[O-])cccc12`, the T/C under setting [1] is 97 % of control, the T/C under setting [2] is 97 % of control and the T/C under setting [3] is 92 % of control.

Take `O=CNC(CSSCC(NC=O)C(=O)O)C(=O)O` (centres undefined): the T/C is, setting by setting: under setting [4], 101 % of control; under setting [5], 103 % of control; under setting [9], 90 % of control.
